{
  "source": "patent US20190255073A1",
  "about": "“ESTERS OF 3-POLYAMINE DERIVATIVES OF BILE ACIDS FOR THE TREATMENT OF INFECTIONS” (VIRBAC, priority 2016, published 2019)",
  "key": {"P. aeruginosa (1051575) [1]": {"test_system": "P. aeruginosa (1051575)", "assay": "Potentiation of erythromycin activity", "type": "cell-based, Pseudomonas aeruginosa", "conditions": "concentration of compound required with erythromycin 2 μg/mL", "protocol": "(§1) This method requires the use of a 96-well plate: 100 μL of a liquid culture medium are placed in each well and then seeded with the microbial suspension prepared previously. The required volume to be seeded is calculated for an OD of 0.01, which corresponds to about 5×10^6 bacteria in each well. In this plate, the first line corresponds to a negative control (200 μL of sterile culture medium in each well), the second line corresponds to a positive control (100 μL of sterile culture medium+100 μL of the bacterial suspension), and the third line contains 192 μL of culture medium; 8 μL of compound of formula (I) to be tested are placed in each well. Thereafter, a cascade dilution is performed from this line. μL of a doxycycline solution (1 mg dissolved in 20 mL) are then added to each well of the lines 3 to 8 to obtain a final antibiotic concentration of 2 μg/mL. 92 μL of bacterial suspension are then added to lines 3 to 8. […] After 24 hours of incubation at 37° C., 40 μL of nitro tetrazolium iodide are added to each well to reveal the presence of live bacteria by staining the medium pink.\nThe procedure is identical to that indicated in Example 5 above. 8 μL of an antibiotic solution under consideration (1 mg dissolved in 20 mL) are added to obtain a final antibiotic concentration of 2 μg/mL instead of 8 μL of a doxycycline solution.\n(§2) The results are given in table V. They indicate the concentration of compound of formula (I) required to be able to restore the activity of the antibiotic under consideration."}, "S. aureus ATCC25923": {"test_system": "S. aureus ATCC25923", "assay": "MIC determination by microplate dilution, S. aureus human strain", "type": "cell-based, Staphylococcus aureus", "conditions": "Staphylococcus aureus, ATCC25923, Gram-positive, Mueller-Hinton medium, 24 h, 37° C.", "outline": "(§3)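 Strains precultured in Mueller-Hinton broth 24 h at 37 °C; compounds from 5 mg/mL stocks in DMSO/methanol 50/50, twofold serial dilution in 96-well plates, inoculum set to OD 0.01. Incubated 24 h at 37 °C, humid; OD read at 620 nm to derive MIC, duplicates.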"}, "S. aureus (340)": {"test_system": "S. aureus (340)", "assay": "MIC determination by microplate dilution, S. aureus animal strain", "type": "cell-based, Staphylococcus aureus", "conditions": "Staphylococcus aureus, Gram-positive, Mueller-Hinton medium, 24 h, 37° C.", "outline": "as §3"}, "E. coli (1956)": {"test_system": "E. coli (1956)", "assay": "MIC determination by microplate dilution, E. coli animal strain", "type": "cell-based, Escherichia coli", "conditions": "Escherichia coli, Gram-negative, Mueller-Hinton medium, 24 h, 37° C.", "outline": "as §3"}, "P. aeruginosa (1051575) [2]": {"test_system": "P. aeruginosa (1051575)", "assay": "Potentiation of ampicillin activity", "type": "cell-based, Pseudomonas aeruginosa", "conditions": "concentration of compound required with ampicillin 4 μg/mL", "protocol": "as §1, with “Thereafter, a cascade dilution is performed from this line. μL of a doxycycline solution (1 mg dissolved in 20 mL) are then added to each well of the lines 3 to 8 to obtain a final antibiotic concentration of 2 μg/mL.” left out\n(§4) The procedure is identical to that indicated in Example 5 above. […]\nas §2"}, "E. coli ATCC28922": {"test_system": "E. coli ATCC28922", "assay": "MIC determination by microplate dilution, E. coli human strain", "type": "cell-based, Escherichia coli", "conditions": "Escherichia coli, ATCC28922, Gram-negative, Mueller-Hinton medium, 24 h, 37° C.", "outline": "as §3"}, "P. aeruginosa (1051575) [3]": {"test_system": "P. aeruginosa (1051575)", "assay": "Potentiation of chloramphenicol activity", "type": "cell-based, Pseudomonas aeruginosa", "protocol": "as §1, with “Thereafter, a cascade dilution is performed from this line. μL of a doxycycline solution (1 mg dissolved in 20 mL) are then added to each well of the lines 3 to 8 to obtain a final antibiotic concentration of 2 μg/mL.” left out\nas §4, §2"}, "P. aeruginosa (1051575) [4]": {"test_system": "P. aeruginosa (1051575)", "assay": "MIC determination by microplate dilution, P. aeruginosa animal strain", "type": "cell-based, Pseudomonas aeruginosa", "conditions": "Pseudomonas aeruginosa, Gram-negative, Mueller-Hinton medium, 24 h, 37° C.", "outline": "as §3"}},
  "data": [
    {"smiles": "CC(C)OC(=O)CC[C@@H](C)[C@H]1CCC2C3C(CC[C@@]21C)[C@@]1(C)CC[C@H](NCCCN(CCCN)CCCN)CC1C[C@H]3O", "note": "(stereo partly drawn) [(39), isopropyl 3β-(tris(3-aminopropyl)amine)chenodeoxycholate]", "values": [
      {"measurement": "MIC P. aeruginosa (1051575), compound + erythromycin", "setting": "P. aeruginosa (1051575) [1]", "result": 30, "unit": "µg/mL"},
      {"measurement": "MIC", "setting": "S. aureus ATCC25923", "result": 7, "unit": "µg/mL"},
      {"measurement": "MIC", "setting": "S. aureus (340)", "result": 7, "unit": "µg/mL"},
      {"measurement": "MIC", "setting": "E. coli (1956)", "result": 28, "unit": "µg/mL"},
      {"measurement": "MIC P. aeruginosa (1051575), compound + ampicillin", "setting": "P. aeruginosa (1051575) [2]", "result": 30, "unit": "µg/mL"},
      {"measurement": "MIC", "setting": "E. coli ATCC28922", "result": 14, "unit": "µg/mL"},
      {"measurement": "MIC P. aeruginosa (1051575), compound + chloramphenicol", "setting": "P. aeruginosa (1051575) [3]; concentration of compound required with chloramphenicol 2 μg/mL", "result": 4, "unit": "µg/mL"},
      {"measurement": "MIC P. aeruginosa (1051575), compound + chloramphenicol", "setting": "P. aeruginosa (1051575) [3]; concentration of compound required with chloramphenicol 4 μg/mL", "result": 2, "unit": "µg/mL"},
      {"measurement": "MIC", "setting": "P. aeruginosa (1051575) [4]", "result": 28, "unit": "µg/mL"}
    ]}
  ]
}
